Tests used:
LTK = target: T1, LTK (Homo sapiens, UniProt P29376); assay: Kinase inhibitory assay (TK-ELISA / off-chip MSA); type: biochemical
T1 construct: purchased Carna Biosciences, Inc
Description: These assays were conducted according to the manufacturer’s instructions. […] TK-ELISA and MSA assays were used to conduct IC50 studies for FLT3, LTK, AXL, and c-KIT; the HTRF® KinEASE™-TK assay (Sceti Medical Labo, Tokyo, Japan) was performed according to the manufacturer’s protocol to assess the IC50 value of echinoderm microtubule-associated protein-like 4-ALK (EML4-ALK; three individual experiments for each kinase).

[1] = test system: Ba/F3 cells expressing FLT3-ITD-D835Y; assay: cells; settings: Mus musculus, BaF3, 48 h, read-out: Cell growth inhibition IC50
Description: (§1) A detailed protocol is provided in the online resource.
(§2) To examine the effect of ASP2215 on cell viability, MV4-11, MOLM-13, and Ba/F3 cells expressing either FLT3-ITD, FLT3-D835Y, FLT3-ITD-D835Y, FLT3-ITD-F691L or FLT3-ITD-F691I were seeded into 96-well white plates (Nunc F96 MicroWell™ Plates, white; Thermo Fisher Scientific Inc., Waltham, MA) at 1000 cells/well in Iscove’s Modified Dulbecco’s Medium, 500 cells/well in RPMI 1640 or 1000 cells/well in RPMI 1640, respectively. All cell lines were cultured overnight in a humidified incubator at 37°C with 5% CO2 in media supplemented with 10% heat-inactivated FBS.
(§3) After treatment, the CellTiter-Glo® Luminescent Cell Viability Assay (Promega) was used according to the manufacturer’s instructions and luminescence was measured using an ARVO-HTS plate reader (Perkin Elmer Inc., Waltham, MA). The assay was performed in either triplicate or quadruplicate. […] The geometric mean was calculated from three individual experiments.
(§4) The mutants of FLT3 (NM_004119), FLT3-D835Y (gat to tat), FLT3-ITD (insertion of […] at 1799 position of CDS), FLT3-ITD-F691I (ttt to att), FLT3-ITD-F691L (ttt to ctt), FLT3-ITD-D835Y were encoded into pMX-puro vector (Cell Biolabs, Inc., San Diego, CA), and transfected with FuGENE-HD (Promega) into Platinum-E cells. […]

[2] = test system: Ba/F3 cells expressing FLT3-ITD; assay: cells; settings: Mus musculus, BaF3, 48 h, read-out: Cell growth inhibition IC50
Description: as §1, §2, §3, §4

[3] = test system: Ba/F3 cells expressing FLT3-ITD-F691 L; assay: CellTiter-Glo cell viability; type: cell-based; settings: Mus musculus, BaF3, 48 h; 2 days of treatment; read-out: Cell growth inhibition IC50
Description: as §1, §2, §3, §4

[4] = test system: Ba/F3 cells expressing FLT3-ITD-F691I; assay: CellTiter-Glo cell viability; type: cell-based; settings: Mus musculus, BaF3, 48 h; 2 days of treatment; read-out: Cell growth inhibition IC50
Description: as §1, §2, §3, §4

MV4–11 cells = assay: CellTiter-Glo cell viability; type: cell-based; settings: Homo sapiens, MV4-11, 120 h; 5 days of treatment; read-out: Growth inhibition mean IC50
Description: as §1
The assay was performed in either triplicate or quadruplicate. […] The geometric mean was calculated from three individual experiments.

TRKA = target: T2, TRKA (Homo sapiens, UniProt P04629); assay: Tyrosine kinase panel (off-chip MSA); type: biochemical; settings: 5 nM; single experiment
T2 construct: purchased Carna Biosciences, Inc
Description: (§5) Inhibitory assay for the panel of tyrosine kinases was conducted using off-chip MSA. Percentage inhibitions were determined in a single experiment

ALK = target: T3, ALK (Homo sapiens, UniProt Q9UM73); assay: Tyrosine kinase panel (off-chip MSA); type: biochemical; settings: 1 nM; single experiment
T3 construct: purchased Carna Biosciences, Inc
Description: as §5

RET = target: T4, RET (Homo sapiens, UniProt P07949); assay: Tyrosine kinase panel (off-chip MSA); type: biochemical; settings: 5 nM; single experiment
T4 construct: purchased Carna Biosciences, Inc
Description: as §5

MER = target: T5, MER (Homo sapiens, UniProt Q12866); assay: Tyrosine kinase panel (off-chip MSA); type: biochemical; settings: 5 nM; single experiment
T5 construct: purchased Carna Biosciences, Inc
Description: as §5

ROS = target: T6, ROS (Homo sapiens, UniProt P08922); assay: Tyrosine kinase panel (off-chip MSA); type: biochemical; settings: 5 nM; single experiment
T6 construct: purchased Carna Biosciences, Inc
Description: as §5

phospho-STAT5 = assay: Immunoblot for phosphorylated STAT5 / STAT5 in MV4-11 xenograft tumors; type: in vivo, mice; settings: for Phospho-STAT5, % of baseline levels: 3 mg/kg
Source text: Detailed protocols can be found in the online resource.
After 1 month, mice were divided into groups, with each group having approximately the same mean tumor volume.
MV4-11 xenograft tumor protein samples were electrophoresed on 7.5% gels, transferred to PVDF membranes, and probed for phosphorylated-STAT and total STAT5 as described earlier with one alteration. Following detection of phosphorylated STAT5, the membrane was stripped using Restore™ Western Blot Stripping Buffer (Thermo Fisher Scientific) and then re-probed for total STAT5. Phosphorylation levels were normalized to total STAT5 levels in each group (3 mice/group) relative to the mean value of the control group (4 mice/group). Data are reported as mean ± SEM.

T1 sequence (P29376 17-864): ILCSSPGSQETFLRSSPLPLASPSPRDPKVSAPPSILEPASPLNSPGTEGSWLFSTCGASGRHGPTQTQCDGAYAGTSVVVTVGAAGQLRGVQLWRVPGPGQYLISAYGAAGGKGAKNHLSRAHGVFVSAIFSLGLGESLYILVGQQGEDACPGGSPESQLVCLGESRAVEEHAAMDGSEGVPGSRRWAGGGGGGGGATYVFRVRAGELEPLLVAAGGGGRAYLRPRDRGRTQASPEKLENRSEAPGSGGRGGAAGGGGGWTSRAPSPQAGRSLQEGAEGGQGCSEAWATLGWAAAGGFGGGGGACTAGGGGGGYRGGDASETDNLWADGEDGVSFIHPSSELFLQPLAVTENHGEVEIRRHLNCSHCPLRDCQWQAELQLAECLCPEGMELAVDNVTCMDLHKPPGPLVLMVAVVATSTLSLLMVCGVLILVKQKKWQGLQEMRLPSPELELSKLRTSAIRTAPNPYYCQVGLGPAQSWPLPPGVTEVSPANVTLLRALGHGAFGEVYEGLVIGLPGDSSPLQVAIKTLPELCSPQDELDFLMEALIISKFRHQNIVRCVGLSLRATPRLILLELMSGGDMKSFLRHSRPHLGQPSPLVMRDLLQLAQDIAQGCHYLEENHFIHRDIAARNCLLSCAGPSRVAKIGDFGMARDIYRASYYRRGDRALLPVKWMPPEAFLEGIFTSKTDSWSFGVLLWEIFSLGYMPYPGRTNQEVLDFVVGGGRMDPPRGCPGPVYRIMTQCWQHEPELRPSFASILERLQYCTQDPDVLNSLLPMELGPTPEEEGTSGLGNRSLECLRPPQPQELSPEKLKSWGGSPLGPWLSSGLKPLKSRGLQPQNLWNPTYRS
T5 sequence (Q12866 21-999): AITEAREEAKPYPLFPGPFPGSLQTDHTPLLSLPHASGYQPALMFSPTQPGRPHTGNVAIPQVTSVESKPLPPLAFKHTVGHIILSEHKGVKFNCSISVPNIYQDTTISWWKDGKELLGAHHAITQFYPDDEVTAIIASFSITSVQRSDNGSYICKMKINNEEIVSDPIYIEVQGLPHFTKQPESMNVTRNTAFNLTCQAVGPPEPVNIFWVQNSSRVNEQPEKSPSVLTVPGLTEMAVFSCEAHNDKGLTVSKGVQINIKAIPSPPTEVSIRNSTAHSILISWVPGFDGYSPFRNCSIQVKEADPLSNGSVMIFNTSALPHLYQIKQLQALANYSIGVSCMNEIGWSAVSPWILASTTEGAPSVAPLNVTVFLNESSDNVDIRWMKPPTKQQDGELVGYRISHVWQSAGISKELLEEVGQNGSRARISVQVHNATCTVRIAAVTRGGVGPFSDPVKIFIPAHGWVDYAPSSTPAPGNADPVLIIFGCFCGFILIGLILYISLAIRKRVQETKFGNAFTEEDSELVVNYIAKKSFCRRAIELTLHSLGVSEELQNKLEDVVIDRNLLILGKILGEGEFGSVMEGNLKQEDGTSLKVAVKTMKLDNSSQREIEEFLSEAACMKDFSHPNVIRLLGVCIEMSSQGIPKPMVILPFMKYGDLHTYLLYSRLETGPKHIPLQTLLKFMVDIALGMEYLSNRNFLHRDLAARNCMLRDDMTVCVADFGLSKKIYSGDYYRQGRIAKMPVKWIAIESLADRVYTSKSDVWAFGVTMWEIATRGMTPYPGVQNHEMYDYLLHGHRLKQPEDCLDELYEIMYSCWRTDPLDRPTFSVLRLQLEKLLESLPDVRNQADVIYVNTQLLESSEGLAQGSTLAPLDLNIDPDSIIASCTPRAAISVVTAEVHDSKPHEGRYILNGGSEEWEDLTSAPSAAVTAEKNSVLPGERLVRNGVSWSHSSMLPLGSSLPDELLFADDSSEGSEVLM
T6 sequence (P08922 28-2347): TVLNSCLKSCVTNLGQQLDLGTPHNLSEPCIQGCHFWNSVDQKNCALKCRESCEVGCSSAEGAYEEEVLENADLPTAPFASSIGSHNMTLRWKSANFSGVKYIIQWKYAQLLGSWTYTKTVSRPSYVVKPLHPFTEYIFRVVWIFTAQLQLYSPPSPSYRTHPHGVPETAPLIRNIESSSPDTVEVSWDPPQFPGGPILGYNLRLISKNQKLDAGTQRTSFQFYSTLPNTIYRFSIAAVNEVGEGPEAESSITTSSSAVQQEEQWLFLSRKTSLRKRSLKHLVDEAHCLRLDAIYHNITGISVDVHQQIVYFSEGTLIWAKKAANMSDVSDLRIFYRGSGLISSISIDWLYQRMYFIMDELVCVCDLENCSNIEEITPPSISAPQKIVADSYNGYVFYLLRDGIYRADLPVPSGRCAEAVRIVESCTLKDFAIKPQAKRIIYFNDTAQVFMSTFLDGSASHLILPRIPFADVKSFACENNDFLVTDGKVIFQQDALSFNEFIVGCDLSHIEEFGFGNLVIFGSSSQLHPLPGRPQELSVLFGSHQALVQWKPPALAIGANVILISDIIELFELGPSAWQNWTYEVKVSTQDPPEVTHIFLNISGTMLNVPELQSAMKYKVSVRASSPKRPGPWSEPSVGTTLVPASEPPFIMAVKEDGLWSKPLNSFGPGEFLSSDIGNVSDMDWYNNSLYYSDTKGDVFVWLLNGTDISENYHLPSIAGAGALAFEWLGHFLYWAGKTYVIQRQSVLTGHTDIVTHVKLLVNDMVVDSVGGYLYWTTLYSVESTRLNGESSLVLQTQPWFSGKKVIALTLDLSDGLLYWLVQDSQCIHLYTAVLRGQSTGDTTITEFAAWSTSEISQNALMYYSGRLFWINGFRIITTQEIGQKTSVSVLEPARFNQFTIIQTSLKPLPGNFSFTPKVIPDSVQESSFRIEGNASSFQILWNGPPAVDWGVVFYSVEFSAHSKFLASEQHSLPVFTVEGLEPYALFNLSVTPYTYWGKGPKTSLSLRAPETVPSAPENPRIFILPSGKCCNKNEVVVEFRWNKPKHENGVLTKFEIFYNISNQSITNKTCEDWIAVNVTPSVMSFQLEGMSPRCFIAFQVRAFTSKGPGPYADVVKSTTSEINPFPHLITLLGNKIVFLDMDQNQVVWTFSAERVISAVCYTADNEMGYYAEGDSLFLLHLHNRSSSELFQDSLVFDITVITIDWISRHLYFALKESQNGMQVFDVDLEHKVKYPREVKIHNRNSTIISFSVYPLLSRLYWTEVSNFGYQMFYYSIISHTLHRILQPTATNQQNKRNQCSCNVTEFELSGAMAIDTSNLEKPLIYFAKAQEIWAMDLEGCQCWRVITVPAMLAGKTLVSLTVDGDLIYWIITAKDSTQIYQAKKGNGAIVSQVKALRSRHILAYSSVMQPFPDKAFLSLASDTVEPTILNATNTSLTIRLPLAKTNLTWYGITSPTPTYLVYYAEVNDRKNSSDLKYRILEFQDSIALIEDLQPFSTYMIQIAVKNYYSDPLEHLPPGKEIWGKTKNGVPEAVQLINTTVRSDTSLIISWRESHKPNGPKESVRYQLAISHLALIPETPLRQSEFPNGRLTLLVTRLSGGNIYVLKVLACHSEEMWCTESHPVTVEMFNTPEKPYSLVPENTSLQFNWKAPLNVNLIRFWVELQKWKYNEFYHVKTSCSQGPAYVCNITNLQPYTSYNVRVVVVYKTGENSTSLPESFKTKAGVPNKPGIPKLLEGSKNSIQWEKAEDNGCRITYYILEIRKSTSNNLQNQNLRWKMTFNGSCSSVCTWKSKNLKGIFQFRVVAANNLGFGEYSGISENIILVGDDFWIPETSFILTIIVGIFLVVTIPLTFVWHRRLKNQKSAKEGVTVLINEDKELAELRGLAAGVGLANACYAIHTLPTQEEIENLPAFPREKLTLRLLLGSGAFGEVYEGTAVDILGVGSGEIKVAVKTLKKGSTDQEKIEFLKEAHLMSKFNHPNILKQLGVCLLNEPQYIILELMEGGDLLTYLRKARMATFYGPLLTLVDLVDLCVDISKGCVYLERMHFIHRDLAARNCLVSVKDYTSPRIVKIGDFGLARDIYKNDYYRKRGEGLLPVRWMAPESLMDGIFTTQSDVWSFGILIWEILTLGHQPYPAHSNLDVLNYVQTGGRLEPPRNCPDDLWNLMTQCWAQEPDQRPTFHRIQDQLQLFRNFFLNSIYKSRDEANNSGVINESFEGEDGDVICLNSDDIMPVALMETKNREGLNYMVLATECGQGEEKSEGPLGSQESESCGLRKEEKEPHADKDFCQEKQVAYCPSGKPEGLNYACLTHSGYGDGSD
T2 sequence (P04629 33-796): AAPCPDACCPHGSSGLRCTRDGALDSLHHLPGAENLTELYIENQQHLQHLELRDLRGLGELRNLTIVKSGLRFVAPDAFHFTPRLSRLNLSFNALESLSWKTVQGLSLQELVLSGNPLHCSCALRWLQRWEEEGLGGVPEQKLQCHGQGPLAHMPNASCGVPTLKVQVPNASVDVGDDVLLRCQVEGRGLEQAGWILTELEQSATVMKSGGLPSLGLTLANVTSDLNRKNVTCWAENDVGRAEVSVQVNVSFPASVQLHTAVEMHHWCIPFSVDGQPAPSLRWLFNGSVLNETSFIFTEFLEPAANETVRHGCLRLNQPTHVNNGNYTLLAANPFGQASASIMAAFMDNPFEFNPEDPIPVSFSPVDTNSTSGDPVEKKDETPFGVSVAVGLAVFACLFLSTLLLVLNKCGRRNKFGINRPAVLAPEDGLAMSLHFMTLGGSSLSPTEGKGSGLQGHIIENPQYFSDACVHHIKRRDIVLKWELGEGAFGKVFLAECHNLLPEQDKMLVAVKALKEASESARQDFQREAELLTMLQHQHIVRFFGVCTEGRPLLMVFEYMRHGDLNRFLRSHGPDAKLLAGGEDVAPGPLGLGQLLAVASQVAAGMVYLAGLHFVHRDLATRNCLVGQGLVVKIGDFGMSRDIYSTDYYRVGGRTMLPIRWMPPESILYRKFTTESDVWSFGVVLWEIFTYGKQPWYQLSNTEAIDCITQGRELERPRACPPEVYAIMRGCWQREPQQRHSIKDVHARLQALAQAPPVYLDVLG

CCc1nc(C(N)=O)c(Nc2ccc(N3CCC(N4CCN(C)CC4)CC3)c(OC)c2)nc1NC1CCOCC1 [gilteritinib]
IC50 (LTK): 0.35 nM | inhibition at 0.001 µM (LTK; 1 nM, single experiment): > 50% | IC50 [1]: 2.1 nM | IC50 [2]: 1.8 nM | IC50 [3]: 22 nM | IC50 [4]: 49 nM | IC50 (MV4–11 cells): 0.92 nM | inhibition at 0.005 µM (TRKA): > 50% | inhibition at 0.001 µM (ALK): > 50% | inhibition at 0.005 µM (RET): > 50% | inhibition at 0.005 µM (MER): > 50% | inhibition at 0.005 µM (ROS): > 50% | Phospho-STAT5, % of baseline levels (phospho-STAT5; 4 h and 8 h): < 20% | Phospho-STAT5, % of baseline levels (phospho-STAT5; 24 h): approximately 50% | Phosphorylation level of STAT5 in tumors (phospho-STAT5; 4 h and 8 h after single dose of 6 mg/kg or 10 mg/kg): almost completely abolished | STAT5 phosphorylation level, % of baseline (phospho-STAT5; 24 h post drug, 6 mg/kg or 10 mg/kg): ~20%

Source: PMC5613053 (Investigational New Drugs, 2017)
